Test results reported in publication PMC7861629 (Bosnian Journal of Basic Medical Sciences, 2021).

What was measured:
[1] = children, 1000 mg vancomycin powder during spinal deformity surgery; cited from earlier work
Protocol: Following the application of 1000 mg of vancomycin powder during sur ...

[2] = rat
Protocol: The weight of the pieces applied was 25.2 ± 1.6 mg (mean ± standard deviation [SD]) and the amount of vancomycin in the collagen sponge pieces was 11.2 ± 0.7 mg (mean ± SD). For placebo group (n = 6), a 10 mm × 10 mm piece of placebo-containing collagen sponge was applied. The pocket on the sham surgery side was sutured with no sponge so as to provide for a control.
We administered 7.5 mg of vancomycin intraperitoneally to rats accompanied by a similar induction of s.c. infection; we measured the plasma levels in the same way as we did for the active arm.
Blood samples (volume, 0.5 mL) for determination of vancomycin and haptoglobin levels were drawn from the jugular vein into a 0.5 mL heparinized syringe under isoflurane anesthesia. Samples were drawn from three animals in vancomycin group 0.5, 1, 2, and 4 h following inoculation on the 1st day to determine vancomycin and haptoglobin levels. Samples were also taken from all animals in placebo group on the 1st day 2 h following inoculation to determine haptoglobin level only. Samples from four animals in vancomycin group and two animals in placebo group were drawn on the 1st, 2nd, and 3rd day following inoculation. The final sample was drawn intracardially upon termination on day 4 following inoculation. The samples were centrifuged (12,000 rpm, 2 min) and the samples from days 1, 2, and 3 following inoculation were frozen at -20°C until analyzed. Vancomycin concentration in the blood as well as haptoglobin level (rat acute phase marker) were determined using a nephelometric method (Beckman Coulter, Indianapolis, IN, USA).

In the case of CN[C@H](CC(C)C)C(=O)N[C@H]1C(=O)N[C@@H](CC(N)=O)C(=O)N[C@H]2C(=O)N[C@H]3C(=O)N[C@H](C(=O)N[C@H](C(=O)O)c4cc(O)cc(O)c4-c4cc3ccc4O)[C@H](O)c3ccc(c(Cl)c3)Oc3cc2cc(c3O[C@@H]2O[C@H](CO)[C@@H](O)[C@H](O)[C@H]2O[C@H]2C[C@](C)(N)[C@H](O)[C@H](C)O2)Oc2ccc(cc2Cl)[C@H]1O [vancomycin], the “vancomycin level in fluid drained by subfascial drain, day 0” value [1] is given as 403 mg/L, the “vancomycin level in fluid drained by subfascial drain, day 1” value [1] is given as 251 mg/L and the “vancomycin level in fluid drained by subfascial drain, day 2” value [1] is given as 115 mg/L. For the same compound, the “vancomycin level in plasma, day 0” value [1] was 2.5 mg/L, the “vancomycin level in plasma, day 1” value [1] was 1.9 mg/L and the “vancomycin level in plasma, day 2” value [1] was 1.1 mg/L. The AUC ([2]; 7.5 mg vancomycin i.p., calculated from obtained levels) was 87.71 µg·h/mL, the “vancomycin level after 24 h” value ([2]; 7.5 mg vancomycin i.p., detected in one animal only, nephelometric method) was 0.2 mg/L and the “expected AUC after 11.2 mg” value ([2]; i.p., extrapolated from 7.5 mg dose to the sponge dose) was 130.9 µg·h/mL.
